Some test systems named below: SK-OV-3 ovarian; HCC-2998 colon; OVCAR-4 ovarian; HOP-92 NSCLC; SW-620 colon; OVCAR-3 ovarian; DU-145 prostate; SF-295 CNS; SF-268 CNS; SK-MEL-2 melanoma.
What all share (assay): DTP human tumour cell line panel, 48 h

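Five compound concentrations were applied to cells in 96-well plates for 48 hours; endpoints were derived by simple linear interpolation of the resulting dose-response curve. The concentration for 50% growth inhibition is given as GI50. TGI marks complete inhibition of growth.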

The values below come from PubChem BioAssay (NCI).

The GI50 is the concentration giving 50% growth inhibition. By TGI is commonly meant the concentration at which net growth stops.

On to `COc1cc(-c2ncn(/C=C\c3nnco3)n2)cc(C(F)(F)F)c1`, for which the GI50 with SK-OV-3 ovarian is 0.979 µM; in the assay with HCC-2998 colon, 0.215 µM; with OVCAR-4 ovarian, 0.211 µM; in the assay with HOP-92 NSCLC, 0.952 µM; with SW-620 colon, 0.0663 µM; with OVCAR-3 ovarian, 0.12 µM. Besides, the GI50 in the assay on DU-145 prostate is 0.416 µM; with SF-295 CNS it was 0.08 µM; in the assay with SF-268 CNS, 0.0891 µM; in the assay on SK-MEL-2 melanoma, 0.0617 µM. Moreover, the total growth inhibition concentration (TGI) in the assay with SK-OV-3 ovarian is greater than 100 µM; in the assay on HCC-2998 colon, 4.5 µM; in the assay on OVCAR-4 ovarian, greater than 72.4 µM; in the assay with HOP-92 NSCLC, 46.5 µM; in the assay on SW-620 colon it was 31.7 µM; in the assay on OVCAR-3 ovarian, 2.69 µM. Besides, the TGI was greater than 100 µM in the assay on DU-145 prostate, greater than 100 µM with SF-295 CNS, 23.9 µM in the assay with SF-268 CNS and 1.15 µM in the assay with SK-MEL-2 melanoma.
As to `COc1ccc(/C=N\Nc2nc(SCC(C)C)nc(-c3ccc(OC)cc3)c2C#N)cc1`, the GI50 with SK-OV-3 ovarian was 1.46 µM; in the assay on HCC-2998 colon, 24.7 µM; with OVCAR-4 ovarian it was 0.417 µM; in the assay on HOP-92 NSCLC, 2.39 µM; in the assay with SW-620 colon, 5.15 µM; with OVCAR-3 ovarian, 6.71 µM. The GI50 in the assay on DU-145 prostate is 13.7 µM; in the assay on SF-295 CNS, 8.58 µM; in the assay with SF-268 CNS, 11.7 µM; in the assay with SK-MEL-2 melanoma, 17.2 µM. Besides, the TGI in the assay on SK-OV-3 ovarian is 14.6 µM; with HCC-2998 colon, 99.4 µM; in the assay with OVCAR-4 ovarian, 1.83 µM; with HOP-92 NSCLC, 14.1 µM; with SW-620 colon, greater than 100 µM; in the assay with OVCAR-3 ovarian, 21.1 µM. The TGI was greater than 100 µM with DU-145 prostate, 28 µM in the assay on SF-295 CNS, 67.7 µM in the assay with SF-268 CNS and 39.7 µM with SK-MEL-2 melanoma.
On to `COC1=C(OC)[C@]2(OC)c3c(O)c(OC)c4c(c3O[C@@]23O[C@@H](c2ccccc2)CC=C3C1=O)[C@@H](OC)C[C@H](c1ccccc1)O4`, for which the GI50 in the assay with SK-OV-3 ovarian is 1.91 µM; with HCC-2998 colon, 1.4 µM; with OVCAR-4 ovarian, 0.667 µM; with HOP-92 NSCLC, 1.24 µM; with SW-620 colon, 0.178 µM; with OVCAR-3 ovarian it was 0.255 µM. For the same compound, the GI50 was 2.09 µM with DU-145 prostate, 1.56 µM in the assay on SF-295 CNS and 0.806 µM in the assay on SF-268 CNS. Besides, the TGI came to 3.56 µM with SK-OV-3 ovarian; 3.32 µM in the assay on HCC-2998 colon; 2.15 µM with OVCAR-4 ovarian; 2.55 µM in the assay on HOP-92 NSCLC; 0.933 µM in the assay with SW-620 colon; 0.72 µM with OVCAR-3 ovarian. Moreover, the figures for the TGI in the assay on DU-145 prostate, with SF-295 CNS and with SF-268 CNS were 3.75 µM, 2.97 µM and 2.84 µM, respectively.
Regarding `O=C1C(Sc2ccc3ccccc3c2)=C(Sc2ccc3ccccc3c2)C(=O)c2ccccc21`, the TGI turned out to be 68.2 µM in the assay on SK-OV-3 ovarian; 19.6 µM in the assay with HCC-2998 colon; 15.2 µM in the assay with OVCAR-4 ovarian; 22.3 µM in the assay with HOP-92 NSCLC; 16.5 µM in the assay with SW-620 colon; 84.4 µM with DU-145 prostate. Further, the TGI in the assay with SF-268 CNS worked out at 28.7 µM; with SK-MEL-2 melanoma, 19.3 µM.
With `COc1ccc(OC)c(Cc2cnc3nc(N)nc(N)c3c2C)c1`, the TGI in the assay on SK-OV-3 ovarian is 27.2 µM; in the assay with HCC-2998 colon, 16.4 µM; with OVCAR-4 ovarian it was 28.8 µM; in the assay on HOP-92 NSCLC it was 39.6 µM; in the assay with SW-620 colon, greater than 45.1 µM; in the assay on OVCAR-3 ovarian, 10.9 µM. For the same compound, the concentration for total growth inhibition (TGI) in the assay with DU-145 prostate was greater than 59.8 µM; in the assay on SF-295 CNS, 41.9 µM; with SF-268 CNS, greater than 71.2 µM; in the assay with SK-MEL-2 melanoma, 27.9 µM.
Consider `CC1CCN(CCOc2ccc(CNc3ccc4nc(CCC5CCCCC5)[nH]c4c3)cc2)CC1`, for which the GI50 in the assay with SK-OV-3 ovarian is 1.81 µM; with HCC-2998 colon it was 1.42 µM; in the assay with OVCAR-4 ovarian, 2.62 µM; in the assay on HOP-92 NSCLC, 0.643 µM; with SW-620 colon it was 1.7 µM; with OVCAR-3 ovarian, 1.61 µM. The GI50 with DU-145 prostate is 2.52 µM; in the assay on SF-295 CNS, 1.87 µM; in the assay on SF-268 CNS, 1.68 µM; in the assay with SK-MEL-2 melanoma it was 1.83 µM. For the same compound, the TGI with SK-OV-3 ovarian stood at 3.4 µM; in the assay on HCC-2998 colon it was 2.85 µM; in the assay on OVCAR-4 ovarian, 8.18 µM; in the assay on HOP-92 NSCLC, 2.23 µM; in the assay on SW-620 colon, 3.35 µM; in the assay on OVCAR-3 ovarian, 3.12 µM. In addition, the TGI with DU-145 prostate is 6.9 µM; in the assay with SF-295 CNS, 3.46 µM; in the assay with SF-268 CNS, 3.44 µM; in the assay with SK-MEL-2 melanoma, 3.41 µM.
For the compound `N#Cc1cccc(Nc2ncc(-c3ccccc3)o2)c1`, the GI50 in the assay on SK-OV-3 ovarian was 8.4 µM; with HCC-2998 colon it was greater than 23.7 µM; in the assay on OVCAR-4 ovarian, 10.9 µM; in the assay with HOP-92 NSCLC, 7.32 µM; in the assay with SW-620 colon, 22.4 µM; with OVCAR-3 ovarian, 8.71 µM. Moreover, the GI50 in the assay with DU-145 prostate was 16 µM; with SF-295 CNS, 9.99 µM; in the assay with SF-268 CNS it was 17.3 µM; with SK-MEL-2 melanoma, greater than 25 µM. The TGI was 19.6 µM in the assay with SK-OV-3 ovarian; greater than 25 µM with HCC-2998 colon; greater than 25 µM with OVCAR-4 ovarian; greater than 25 µM in the assay on HOP-92 NSCLC; greater than 25 µM in the assay on SW-620 colon; greater than 25 µM in the assay with OVCAR-3 ovarian. The TGI with DU-145 prostate, in the assay on SF-295 CNS, in the assay with SF-268 CNS and in the assay on SK-MEL-2 melanoma was greater than 25 µM throughout.
For `O=C1/C(=C/c2ccccc2O)N=C(c2ccccc2)N1c1cc(C(F)(F)F)ccc1Cl`, the GI50 in the assay on SK-OV-3 ovarian was 43.7 µM; in the assay with HCC-2998 colon, greater than 100 µM; in the assay with OVCAR-4 ovarian, greater than 100 µM; with HOP-92 NSCLC, 19.1 µM; in the assay on SW-620 colon it was greater than 100 µM; in the assay on OVCAR-3 ovarian, 54.2 µM. In addition, the GI50 was 43.8 µM with DU-145 prostate, 23.2 µM in the assay with SF-295 CNS, 26.2 µM in the assay on SF-268 CNS and greater than 100 µM with SK-MEL-2 melanoma. The TGI in the assay on SK-OV-3 ovarian is greater than 100 µM; in the assay on HCC-2998 colon, greater than 100 µM; with OVCAR-4 ovarian, greater than 100 µM; in the assay with HOP-92 NSCLC it was 53 µM; in the assay with SW-620 colon, greater than 100 µM; with OVCAR-3 ovarian, greater than 100 µM. Moreover, the TGI with DU-145 prostate was greater than 100 µM; in the assay on SF-295 CNS, 52.6 µM; in the assay on SF-268 CNS, 97.4 µM; in the assay with SK-MEL-2 melanoma, greater than 100 µM.
